In ChEMBL document CHEMBL1137281, “Synthesis and biological evaluation of copper (II) complexes of sterically hindered o-aminophenol derivatives as antimicrobial agents” (2006):
Values after ≈ are worked out from the molar mass of the structure shown.

What was measured:
Assay type in all cases: functional
Lipomyces lipofer = assay: Antimicrobial activity against Lipomyces lipofer
[1] = Antimicrobial activity against Hansenula sp.; settings: Pichia
Rhodotorula mucilaginosa = assay: Antimicrobial activity against Rhodotorula rubra
Candida albicans = assay: Antimicrobial activity against Candida albicans
Escherichia coli = assay: Antibacterial activity against Escherichia coli
Micrococcus luteus = assay: Antimicrobial activity against Sarcina lutea
[2] = tested on: Staphylococcus saprophyticus; assay: Antibacterial activity against Staphylococcus saprophyticus
Cyberlindnera jadinii = assay: Antimicrobial activity against Candida utilis; settings: Williopsis jadinii
Pseudomonas aeruginosa = assay: Antimicrobial activity against Pseudomonas aeruginosa
Saccharomyces cerevisiae = assay: Antimicrobial activity against Saccharomyces cerevisiae
Papiliotrema laurentii = assay: Antifungal activity against Cryptococcus laurentii
Aspergillus niger = assay: Antifungal activity against Aspergillus niger
Bacillus subtilis = assay: Antibacterial activity against Bacillus subtilis
Candida boidinii = assay: Antimicrobial activity against Candida boidinii
Komagataella pastoris = assay: Antimicrobial activity against Pichia pastoris
Serratia marcescens = assay: Antimicrobial activity against Serratia marcescens

MIC (Lipomyces lipofer) [µg/mL] | MIC [1] [µg/mL] | MIC (Rhodotorula mucilaginosa) [µg/mL] | MIC (Candida albicans) [µg/mL] | MIC (Escherichia coli) [µg/mL] | MIC (Micrococcus luteus) [µg/mL] | MIC [2] [µg/mL] | MIC (Cyberlindnera jadinii) [µg/mL] | MIC (Pseudomonas aeruginosa) [µg/mL] | MIC (Saccharomyces cerevisiae) [µg/mL] | MIC (Papiliotrema laurentii) [µg/mL] | MIC (Aspergillus niger) [µg/mL] | MIC (Bacillus subtilis) [µg/mL] | MIC (Candida boidinii) [µg/mL] | MIC (Komagataella pastoris) [µg/mL] | MIC (Serratia marcescens) [µg/mL] | SMILES
> 50 | > 50 | > 50 | > 50 | > 50 | > 50 | > 50 | > 50 | > 50 | > 50 | > 50 | > 50 | > 50 | > 50 | > 50 | > 50 | CC(C)(C)c1cc(Nc2ccccc2)c(O)c(C(C)(C)C)c1
6.25 (≈ 28.2 µM) | 6.25 (≈ 28.2 µM) | 50 (≈ 226 µM) | > 50 | > 50 | 12.5 (≈ 56.5 µM) | 12.5 (≈ 56.5 µM) | > 50 | > 50 | 6.25 (≈ 28.2 µM) | 6.25 (≈ 28.2 µM) | > 50 | 25 (≈ 113 µM) | > 50 | 6.25 (≈ 28.2 µM) | > 50 | CC(C)(C)c1cc(N)c(O)c(C(C)(C)C)c1

SMILES | MIC (Lipomyces lipofer) [µg/mL] | MIC [1] [µg/mL] | MIC (Rhodotorula mucilaginosa) [µg/mL] | MIC (Candida albicans) [µg/mL] | MIC (Escherichia coli) [µg/mL] | MIC (Micrococcus luteus) [µg/mL] | MIC [2] [µg/mL] | MIC (Cyberlindnera jadinii) [µg/mL] | MIC (Pseudomonas aeruginosa) [µg/mL] | MIC (Saccharomyces cerevisiae) [µg/mL] | MIC (Papiliotrema laurentii) [µg/mL] | MIC (Aspergillus niger) [µg/mL] | MIC (Bacillus subtilis) [µg/mL] | MIC (Candida boidinii) [µg/mL] | MIC (Komagataella pastoris) [µg/mL] | MIC (Serratia marcescens) [µg/mL]
Nc1ccccc1O [QUESTIOMYCIN B] |  | > 50 |  | > 50 | > 50 |  | > 50 | > 50 | > 50 | > 50 |  | > 50 | > 25 | > 50 | > 50 | > 50
